Tests used:
[1] = biological target: Prothrombin (Homo sapiens, UniProt P00734); assay: Inhibition constant towards human thrombin
[2] = biological target: Coagulation factor X (Homo sapiens, UniProt P00742); assay: Inhibition constant towards human coagulation factor X
[3] = biological target: T1, Serine protease 1 (Bos taurus, UniProt P00760); assay: Inhibition constant towards bovine trypsin
T1 sequence (P00760 whole entry): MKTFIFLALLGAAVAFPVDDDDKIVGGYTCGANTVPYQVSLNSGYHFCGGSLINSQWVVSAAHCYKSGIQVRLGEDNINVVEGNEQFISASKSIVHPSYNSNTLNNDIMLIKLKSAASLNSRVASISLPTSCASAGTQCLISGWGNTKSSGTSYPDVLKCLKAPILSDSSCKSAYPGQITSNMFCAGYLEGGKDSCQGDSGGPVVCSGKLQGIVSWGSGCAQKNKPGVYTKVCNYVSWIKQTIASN

[4] = biological target: T2, Coagulation factor VII (Homo sapiens, UniProt P08709); assay: Inhibition constant towards human coagulation factor VII
T2 sequence (P08709 whole entry): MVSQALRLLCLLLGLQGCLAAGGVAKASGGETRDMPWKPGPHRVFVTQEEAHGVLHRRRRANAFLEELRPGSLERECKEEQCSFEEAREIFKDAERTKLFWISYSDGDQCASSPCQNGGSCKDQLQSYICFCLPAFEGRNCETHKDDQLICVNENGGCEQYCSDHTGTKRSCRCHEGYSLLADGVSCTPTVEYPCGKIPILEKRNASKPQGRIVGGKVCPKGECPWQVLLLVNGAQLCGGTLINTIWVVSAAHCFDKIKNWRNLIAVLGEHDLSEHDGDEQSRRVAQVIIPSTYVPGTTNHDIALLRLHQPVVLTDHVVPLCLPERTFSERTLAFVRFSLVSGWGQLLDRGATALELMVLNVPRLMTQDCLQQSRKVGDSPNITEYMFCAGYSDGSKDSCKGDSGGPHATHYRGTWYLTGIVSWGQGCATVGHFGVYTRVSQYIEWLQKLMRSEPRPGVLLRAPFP

Coagulation factor X, sequence (P00742 41-179 limits assumed): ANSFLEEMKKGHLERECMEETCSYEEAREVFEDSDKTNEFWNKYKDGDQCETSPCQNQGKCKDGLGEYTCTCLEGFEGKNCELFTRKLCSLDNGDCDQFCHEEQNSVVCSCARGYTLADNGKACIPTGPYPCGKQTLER
Coagulation factor X, sequence (P00742 235-488 limits assumed): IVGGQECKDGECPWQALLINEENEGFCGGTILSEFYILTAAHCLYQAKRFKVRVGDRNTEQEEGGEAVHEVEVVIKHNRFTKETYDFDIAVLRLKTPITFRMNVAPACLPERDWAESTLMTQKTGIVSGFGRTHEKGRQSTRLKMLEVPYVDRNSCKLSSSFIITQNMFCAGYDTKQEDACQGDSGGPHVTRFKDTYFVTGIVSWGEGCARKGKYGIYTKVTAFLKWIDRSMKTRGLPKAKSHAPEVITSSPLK

Ki [1]	Ki [2]	Ki [3]	Ki [4]	Structure (SMILES)
486 nM	512 nM	460 nM	783 nM	CC(C)CCN(Cc1ccc2ccc(C(=N)N)cc2c1)C(=O)c1ccc2ccccc2c1
> 5000 nM	111 nM	433 nM	142 nM	CN1CCCC1CCN(Cc1ccc2ccc(C(=N)N)cc2c1)C(=O)c1cccc2ccccc12 (configuration not stated)
4760 nM	104 nM	299 nM	195 nM	N=C(N)c1ccc2ccc(CN(CCc3ccccn3)C(=O)c3cccc4ccccc34)cc2c1
1200 nM	632 nM	925 nM	207 nM	N=C(N)c1ccc2ccc(CN(CCCc3ccccc3)C(=O)c3cccc4ccccc34)cc2c1
> 5000 nM	264 nM	378 nM	305 nM	N=C(N)c1ccc2ccc(CN(CCc3cnc[nH]3)C(=O)c3cccc4ccccc34)cc2c1
> 5000 nM	731 nM	752 nM	282 nM	N=C(N)c1ccc2ccc(CN(CCC[n+]3cc[nH]c3)C(=O)c3cccc4ccccc34)cc2c1
> 5000 nM	137 nM	367 nM	646 nM	CC1CCCCN1CCCN(Cc1ccc2ccc(C(=N)N)cc2c1)C(=O)c1cccc2ccccc12 (configuration not stated)
> 5000 nM	442 nM	378 nM	121 nM	N=C(N)c1ccc2ccc(CN(CCCN3CCOCC3)C(=O)c3cccc4ccccc34)cc2c1
500 nM	136 nM	500 nM	1310 nM	CN1CCN(CCCN(Cc2ccc3ccc(C(=N)N)cc3c2)C(=O)c2cccc3ccccc23)CC1
1680 nM	40 nM	501 nM	194 nM	N=C(N)c1ccc2ccc(CN(CCc3ccc(F)cc3)C(=O)c3cccc4ccccc34)cc2c1
2510 nM	417 nM	105 nM	133 nM	COc1ccc(CCN(Cc2ccc3ccc(C(=N)N)cc3c2)C(=O)c2cccc3ccccc23)cc1OC
1160 nM	262 nM	698 nM	93 nM	CC(C)CCN(Cc1ccc2ccc(C(=N)N)cc2c1)C(=O)c1cccc2ccccc12
> 5000 nM	> 5000 nM	1610 nM	1010 nM	CC(C)CC(C(=O)O)N(Cc1ccc2ccc(C(=N)N)cc2c1)C(=O)c1cccc2ccccc12 (single isomer, unassigned)

Reference: ChEMBL document CHEMBL1144375, “Solid-phase synthesis of naphthylamidines as factor VIIa/tissue factor inhibitors” (Bioorg Med Chem Lett, 2005)
